Patent US11096952B2, “Chemicals and methods to prevent and treat TGF-beta mediated activation of fibroblasts to reduce and treat cancer and fibrosis” (Board of Supervisors of Louisiana State University and …, priority 2016, dated 2021)

Tests used:
[1] = test system: TGF-β-induced fibronectin expression; experiment: Western blot of TGF-β-induced fibronectin expression in MRC-5 fibroblasts (5 ng/ml TGF-β); format: cell-based, human; details: MRC-5, 5 ng/ml TGF-β, digoxin 30, 60, 120, 240 nM, 24 hours
Description: (§1) Representative blots are shown with two exposures of fibronectin to account for strong signal intensity. n=3.

[2] = test system: TGF-β-induced CAF differentiation markers; experiment: Real-Time PCR of CAF markers in WPMY-1 fibroblasts; format: cell-based, human; details: WPMY-1, 120 nM digoxin, 24 h
Protocol: In order to determine if digoxin prevents CAF differentiation or simply TGF-β-induced fibronectin expression, the inventors performed quantitative reverse transcriptase-PCR (qPCR) to analyze other CAF markers, including α-SMA, collagen 1a1 (COL1A1), fibroblast activation protein (FAP), and tenascin C (TNC). RNA was extracted from cells treated with 120 nM digoxin±TGF-β for 24 hours. […] Additionally, the inventors observed that α-SMA mRNA expression was already high in WPMY-1 cells and not increased by addition of TGF-β, but was reduced in response to digoxin treatment.

WPMY-1 fibroblasts = experiment: Collagen/Matrigel contraction of WPMY-1 fibroblasts; details: WPMY-1 in collagen/Matrigel, 120 nM digoxin, 5 ng/ml TGF-β, 4 days
Protocol: WPMY-1 (A) and MRC-5 (B) fibroblasts were treated with or without 120 nM digoxin±5 ng/ml TGF-β. […] WPMY-1 (C) and MRC-5 (D) fibroblasts embedded in collagen/Matrigel were treated with or without 120 nM digoxin±5 ng/ml TGF-β for 4 days post seeding. Data are shown as percent contracted area from initial 100% well confluence. *P<0.05 and **P<0.01 indicate significant differences (n=3, Values are ±SEM).

WPMY-1 cells = experiment: Viability / metabolic activity assay on WPMY-1 cells
Protocol: Metabolically viable cells (indicated by bar; left y-axis) are indicated by fluorescent intensity (560/590 nm).
Cardiac glycosides have been shown previously to inhibit cell growth in a variety of cell types, in order to determine whether cardiac glycosides inhibited TGE-β-induced fibronectin expression by affecting metabolic activity, viability assays were performed on WPMY-1 cells over 48 hours in 1% FBS DMEM.

EGR1 luciferase reporter = EGR1 luciferase reporter in WPMY-1 cells; format: cell-based, human; details: WPMY-1, digoxin 60 or 120 nM, 5 ng/ml TGF-β, 24 hours
Protocol: (§2) A) WPMY-1 human fibroblast cells transfected with SMAD (left) or EGR1 (right) luciferase reporter were treated with or without 5 ng/ml TGF-β in the presence or absence of Digoxin (60 or 120 nM) for 24 hours. Relative luciferase activity is shown. *P<0.05, **P<0.01, ***P<0.001 are significant differences compared to values set to 1 (n=3, Values are ±SEM). B) J2 mouse fibroblast cells were treated with or without 5 ng/ml TGF-β in the presence or absence of increasing concentrations (30, 60, 120, or 240 nM) of digoxin for 24 hours. Representative blot is shown with two exposures of fibronectin to account for strong signal intensity (n=3).
(§3) Finally, J2 mouse fibroblast cells were treated with or without 5 ng/ml TGF-β in the presence or absence of increasing concentrations (30, 60, 120, or 240 nM) of digoxin for 24 hours.

[3] = test system: TGF-β-induced fibronectin expression; experiment: Western blot of TGF-β-induced fibronectin expression in HPS-19 fibroblasts; format: cell-based, human; details: HPS-19, 5 ng/ml TGF-β, digoxin 30, 60, 120, 240 nM, 24 hours
Description: as §1

SMAD promoter activity = experiment: SMAD luciferase reporter in WPMY-1 cells; format: cell-based, human; details: WPMY-1, digoxin 60 or 120 nM, 5 ng/ml TGF-β, 24 hours
Protocol: as §2, §3

[4] = test system: activated fibroblast phenotype (fibronectin, YAP, TAZ, smooth muscle actin); experiment: Western blot of activated fibroblast markers (FN, YAP, TAZ, SMA) in MRC-5 lung fibroblasts induced by growth factors; format: cell-based, human
Protocol: FIG. 10C: MRC-5 lung fibroblast cells were serum-starved 24 hours then treated with 10 ng/mL TGF-β in serum-free media for 24 hours with or without verteporfin at the indicated concentration. FN: fibronectin, YAP: yes-activated protein, TAZ: transcriptional coactivator with PDZ-binding motif, and SMA(ACTA2): smooth muscle actin. Representative western blot is shown (n=3).
FIG. […] T.F.8: combination TGF, FGF, IL8. […] FN: fibronectin, YAP: yes-activated protein, TAZ: transcriptional coactivator with PDZ-binding motif, and SMA(ACTA2): smooth muscle actin. Representative western blot is shown (n=2).

[5] = test system: activated fibroblast phenotype; details: MRC-5 pre-activated with 10 ng/mL TGF-β 24 hours, then 24 hours treatment
Protocol: (§4) FIGS. 13A-13C: MRC-5 lung fibroblast cells were serum-starved 24 hours then treated with or without 10 ng/mL TGF-β for 24 hours (T-24 hr). […] FN: fibronectin, YAP: yes-activated protein, TAZ: transcriptional coactivator with PDZ-binding motif, and SMA(ACTA2): smooth muscle actin. Representative western blot is shown (n=2). […] Cells were fixed in −20C methanol for 15 minutes and immunolabeled for fibronectin. Cellomics arrayscan imaging was performed and staining intensity was quantified and analyzed for fibronectin expression on a per cell basis.
(§5) Turning now to FIGS. 13A-13E, in a clinical setting, it would be advantageous for the efficacy of the therapeutics that the activated fibroblasts be reversed to a quiescent state upon treatment. […] To test the combinations, the inventors obtained quantitative analysis of fibronectin staining in fibroblasts upon treatment with TGF-β in the presence or absence of drug combinations.

[6] = test system: TGF-β-induced fibronectin; details: MRC-5, 10 ng/mL TGF-β, 24 hours, low concentrations alone or in combination
Protocol: as §4, §5

C[C@H]1O[C@@H](O[C@H]2[C@@H](O)C[C@H](O[C@H]3[C@@H](O)C[C@H](O[C@H]4CC[C@@]5(C)[C@H](CC[C@@H]6[C@@H]5C[C@@H](O)[C@]5(C)[C@@H](C7=CC(=O)OC7)CC[C@]65O)C4)O[C@@H]3C)O[C@@H]2C)C[C@H](O)[C@@H]1O [digoxin]
TGF-β-induced fibronectin expression (western blot) [1]: prevents TGF-β-induced fibronectin expression in a dose dependent manner | TGF-β-induced expression of FN1, COL1A1, FAP, TNC mRNA ([2]; 5 ng/ml TGF-β): prevented TGF-β-induced expression of FN1, COL1A1, FAP, and TNC mRNA | α-SMA mRNA expression [2]: reduced | TGF-β induced contraction of fibroblasts (WPMY-1 fibroblasts): inhibits TGF-β induced contraction of fibroblasts | cell viability / metabolic activity (WPMY-1 cells): no effect on cell viability | EGR-1 dependent promoter (luciferase) activity (EGR1 luciferase reporter): lowers the activation of promoter dependent on EGR-1 | TGF-β-induced fibronectin expression (western blot) [3]: prevents TGF-β-induced fibronectin expression in a dose dependent manner | TGF-β-induced SMAD promoter (luciferase) activity (SMAD promoter activity): prevents the TGF-β induction of the SMAD signaling pathway | activated fibroblast phenotype induced by TGF-β and FGF (fibronectin, YAP, TAZ, smooth muscle actin) ([4]; MRC-5, 10 ng/mL TGF-β and 20 ng/ml FGF, 24 hours): able to prevent the activated fibroblast phenotype | activated fibroblast phenotype upon TGF-β and FGF, compared with nintedanib ([4]; MRC-5, 10 ng/mL TGF-β and 20 ng/ml FGF, 24 hours, nintedanib 200 nM): able to block the activated fibroblast phenotype better than nintedanib | fibroblast activation from a combination of growth factors (TGF, FGF, IL8) ([4]; MRC-5, 10 ng/mL TGF-β, 20 ng/mL FGF, 20 ng/mL IL-8, digoxin 250 nM, pyrvinium 500 nM vs pirfenidone 500 μm, nintedanib 250 nM): able to block fibroblast activation from a combination of growth factors better than pirfenidone or nintedanib | induction of fibronectin, YAP, TAZ, smooth muscle actin by TGF-β ([4]; MRC-5, 10 ng/mL TGF-β, serum-free, 24 hours, dose escalation): block the induction of activated fibroblasts | reversal of activated fibroblast phenotype (fibronectin, TAZ, smooth muscle actin) [5]: revert fibroblasts to the quiescent state | fibronectin staining intensity per cell (Cellomics arrayscan) [6]: the levels of fibronectin are reduced
